Results from patent US10358434B2, “2-(3-pyridinyl)-1H-benzimidazole derivative compound and medicament containing same” (NIHON MEDI-PHYSICS CO., LTD., priority 2014, dated 2019).

Legend:
[1] = In vivo kinetics experiment (radioactivity distribution); design: species or system Wistar male rat; details: rat i.v., mean ± SD
Outline: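 Tissue radioactivity (% ID/g) and adrenal-to-blood, liver, kidney, small intestine, muscle and fat ratios determined at 10, 30 and 60 min post-dose. Tracers (approximately 1 to 3.7 MBq, saline with 1 w/v % ascorbic acid) injected i.v. into caudal vein of anesthetized 9-week male Wistar rats; organs excised, weighed, counted.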

[2] = test system: human adrenal gland section expressing aldosterone-producing adenoma; assay: In vitro autoradiography using human adrenal adenoma; type: binding; details: section of FIG. 17(b)
Outline: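 Autoradiography readout: PSL in equal-sized ROIs over adenoma (B2) and normal adrenal cortex (B1), expressed as B2/B1 and decay-corrected using half-life, applied activity and plate contact time. Tissue was surgically excised human adrenal, frozen and cut at 7 μm, incubated 10 min with 5-33 kBq/mL tracer in BSA-containing PBS, then imaged after 16-20 h exposure.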

[3] = Plasma stability evaluation (TLC analysis); type: in vitro ADME; details: 37° C., 60 minutes, TLC analysis
Outline: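 TLC analysis, using each compound's synthesis conditions, judged stability after methanol was added and samples were centrifuged to remove protein. Beforehand, each tracer had spent 60 minutes at 37° C in pooled heparinized normal human plasma.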

SMILES: Fc1cc2nc(-c3cncc(Cn4ccnc4)c3)n(Cc3ccc([123I])cc3)c2cc1Cl [[^123I] 605, 6-Chloro-5-fluoro-1-(4-[^123I]iodobenzyl)-2-[5-(1H-imidazol-1-ylmethyl)-3-pyridinyl]-1H-benzimidazole]
- Adrenal gland/blood ratio of radioactivity accumulation ([1]; 10 min after administration): 39.83 ± 1.25
- Adrenal gland/fat ratio of radioactivity accumulation ([1]; 10 min after administration): 41.90 ± 6.19
- Adrenal gland/kidney ratio of radioactivity accumulation ([1]; 10 min after administration): 2.61 ± 0.04
- Adrenal gland/liver ratio of radioactivity accumulation ([1]; 10 min after administration): 1.38 ± 0.01
- Adrenal gland/muscle ratio of radioactivity accumulation ([1]; 10 min after administration): 36.77 ± 3.87
- Adrenal gland/small intestine ratio of radioactivity accumulation ([1]; 10 min after administration): 2.44 ± 0.80
- Radioactivity distribution Adrenal gland ([1]; 10 min after administration): 5.67 ± 0.25 % ID/g
- Radioactivity distribution Bladder (including urine) ([1]; 10 min after administration): 0.09 ± 0.06 % ID/g
- Radioactivity distribution Blood ([1]; 10 min after administration): 0.14 ± 0.00 % ID/g
- Radioactivity distribution Fat ([1]; 10 min after administration): 0.14 ± 0.02 % ID/g
- Radioactivity distribution Femur ([1]; 10 min after administration): 0.51 ± 0.02 % ID/g
- Radioactivity distribution Heart ([1]; 10 min after administration): 0.73 ± 0.06 % ID/g
- Radioactivity distribution Kidney ([1]; 10 min after administration): 2.17 ± 0.09 % ID/g
- Radioactivity distribution Large intestine ([1]; 10 min after administration): 0.13 ± 0.01 % ID/g
- Radioactivity distribution Liver ([1]; 10 min after administration): 4.12 ± 0.23 % ID/g
- Radioactivity distribution Lung ([1]; 10 min after administration): 1.94 ± 0.16 % ID/g
- Radioactivity distribution Muscle (lower limbs) ([1]; 10 min after administration): 0.16 ± 0.01 % ID/g
- Radioactivity distribution Remaining whole body ([1]; 10 min after administration): 0.20 ± 0.01 % ID/g
- Radioactivity distribution Small intestine ([1]; 10 min after administration): 2.46 ± 0.61 % ID/g
- Radioactivity distribution Spleen ([1]; 10 min after administration): 1.08 ± 0.10 % ID/g
- Radioactivity distribution Stomach ([1]; 10 min after administration): 0.80 ± 0.23 % ID/g
- Radioactivity distribution Testis ([1]; 10 min after administration): 0.03 ± 0.00 % ID/g
- Radioactivity distribution Whole brain ([1]; 10 min after administration): 0.03 ± 0.00 % ID/g
- Adrenal gland/blood ratio of radioactivity accumulation ([1]; 30 min after administration): 26.42 ± 7.24
- Adrenal gland/fat ratio of radioactivity accumulation ([1]; 30 min after administration): 22.69 ± 9.87
- Adrenal gland/kidney ratio of radioactivity accumulation ([1]; 30 min after administration): 2.58 ± 0.55
- Adrenal gland/liver ratio of radioactivity accumulation ([1]; 30 min after administration): 1.14 ± 0.36
- Adrenal gland/muscle ratio of radioactivity accumulation ([1]; 30 min after administration): 14.44 ± 5.54
- Adrenal gland/small intestine ratio of radioactivity accumulation ([1]; 30 min after administration): 0.79 ± 0.34
- Radioactivity distribution Adrenal gland ([1]; 30 min after administration): 3.10 ± 1.06 % ID/g
- Radioactivity distribution Bladder (including urine) ([1]; 30 min after administration): 0.15 ± 0.01 % ID/g
- Radioactivity distribution Blood ([1]; 30 min after administration): 0.12 ± 0.01 % ID/g
- Radioactivity distribution Fat ([1]; 30 min after administration): 0.14 ± 0.03 % ID/g
- Radioactivity distribution Femur ([1]; 30 min after administration): 0.44 ± 0.04 % ID/g
- Radioactivity distribution Heart ([1]; 30 min after administration): 0.52 ± 0.04 % ID/g
- Radioactivity distribution Kidney ([1]; 30 min after administration): 1.18 ± 0.14 % ID/g
- Radioactivity distribution Large intestine ([1]; 30 min after administration): 0.16 ± 0.01 % ID/g
- Radioactivity distribution Liver ([1]; 30 min after administration): 2.72 ± 0.12 % ID/g
- Radioactivity distribution Lung ([1]; 30 min after administration): 0.99 ± 0.10 % ID/g
- Radioactivity distribution Muscle (lower limbs) ([1]; 30 min after administration): 0.22 ± 0.02 % ID/g
- Radioactivity distribution Remaining whole body ([1]; 30 min after administration): 0.21 ± 0.02 % ID/g
- Radioactivity distribution Small intestine ([1]; 30 min after administration): 3.99 ± 0.33 % ID/g
- Radioactivity distribution Spleen ([1]; 30 min after administration): 0.58 ± 0.09 % ID/g
- Radioactivity distribution Stomach ([1]; 30 min after administration): 1.38 ± 0.42 % ID/g
- Radioactivity distribution Testis ([1]; 30 min after administration): 0.03 ± 0.00 % ID/g
- Radioactivity distribution Whole brain ([1]; 30 min after administration): 0.03 ± 0.00 % ID/g
- Adrenal gland/blood ratio of radioactivity accumulation ([1]; 60 min after administration): 20.07 ± 1.94
- Adrenal gland/fat ratio of radioactivity accumulation ([1]; 60 min after administration): 10.82 ± 1.23
- Adrenal gland/kidney ratio of radioactivity accumulation ([1]; 60 min after administration): 2.05 ± 0.09
- Adrenal gland/liver ratio of radioactivity accumulation ([1]; 60 min after administration): 0.88 ± 0.05
- Adrenal gland/muscle ratio of radioactivity accumulation ([1]; 60 min after administration): 10.90 ± 0.67
- Adrenal gland/small intestine ratio of radioactivity accumulation ([1]; 60 min after administration): 0.26 ± 0.08
- Radioactivity distribution Adrenal gland ([1]; 60 min after administration): 1.70 ± 0.21 % ID/g
- Radioactivity distribution Bladder (including urine) ([1]; 60 min after administration): 0.13 ± 0.05 % ID/g
- Radioactivity distribution Blood ([1]; 60 min after administration): 0.09 ± 0.02 % ID/g
- Radioactivity distribution Fat ([1]; 60 min after administration): 0.16 ± 0.02 % ID/g
- Radioactivity distribution Femur ([1]; 60 min after administration): 0.36 ± 0.03 % ID/g
- Radioactivity distribution Heart ([1]; 60 min after administration): 0.35 ± 0.09 % ID/g
- Radioactivity distribution Kidney ([1]; 60 min after administration): 0.83 ± 0.10 % ID/g
- Radioactivity distribution Large intestine ([1]; 60 min after administration): 0.19 ± 0.03 % ID/g
- Radioactivity distribution Liver ([1]; 60 min after administration): 1.93 ± 0.37 % ID/g
- Radioactivity distribution Lung ([1]; 60 min after administration): 0.56 ± 0.15 % ID/g
- Radioactivity distribution Muscle (lower limbs) ([1]; 60 min after administration): 0.16 ± 0.01 % ID/g
- Radioactivity distribution Remaining whole body ([1]; 60 min after administration): 0.13 ± 0.02 % ID/g
- Radioactivity distribution Small intestine ([1]; 60 min after administration): 6.65 ± 0.98 % ID/g
- Radioactivity distribution Spleen ([1]; 60 min after administration): 0.34 ± 0.07 % ID/g
- Radioactivity distribution Stomach ([1]; 60 min after administration): 2.22 ± 0.73 % ID/g
- Radioactivity distribution Testis ([1]; 60 min after administration): 0.03 ± 0.01 % ID/g
- Radioactivity distribution Whole brain ([1]; 60 min after administration): 0.02 ± 0.01 % ID/g
- B2/B1 accumulation ratio [2]: 0.94
- B2 (PSL value, aldosterone-producing adenoma) ([2]; site 71b): 4065
- B1 (PSL value, normal adrenal cortex) ([2]; site 72b): 4318
- Radiochemical purity after incubation in human plasma [3]: 90%
